Data from patent US20190309272A1, “Genetically Modified Cell Lines Including a TP53 Modification and Methods of Use” (UNIVERSITY OF SOUTH CAROLINA, priority 2018, published 2019).
Counter-ions that a name gives are not always drawn. Like-named read-outs stand apart in the source and are kept apart here.

Experiments:
Type in all cases: cell-based, Human
MCF7 WT Parental pool = test: Drug screening, resazurin, MCF7 wild type parental pool
MCF7 TP53 KO 5.6 pool = test: Drug screening, resazurin, TP53 KO 5.6 pool
MCF7 TP53 KO 3.4 pool = test: Drug screening, resazurin, TP53 KO 3.4 pool
[1] = ten-day drug treatment, 156.25 nM to 10 μM, resazurin fluorescence

Row | Molecule | MCF7 WT Parental pool (AUC) (MCF7 WT Parental pool; [1]) | TP53 KO 5.6 pool (AUC) (MCF7 TP53 KO 5.6 pool; [1]) | TP53 KO 3.4 pool (AUC) (MCF7 TP53 KO 3.4 pool; [1]) | TP53 KO 5.6 pool (AUC) (MCF7 TP53 KO 5.6 pool) | TP53 KO 3.4 pool (AUC) (MCF7 TP53 KO 3.4 pool) | MCF7 WT Parental pool (AUC) (MCF7 WT Parental pool)
1 | CS(=O)(=O)c1ccc(C(=O)Nc2ccc(Cl)c(-c3ccccn3)c2)c(Cl)c1 [Vismodegib] | 8.801 | 8.363 | 8.017 |  |  | 
2 | Nc1nc(F)nc2c1ncn2[C@@H]1O[C@H](COP(=O)(O)O)[C@@H](O)[C@@H]1O [FludarabinePhosphate] | 8.551 | 7.936 | 8.135 |  |  | 
3 | Nc1nc2[nH]cc(CCc3ccc(C(=O)N[C@@H](CCC(=O)O)C(=O)O)cc3)c2c(=O)[nH]1 [Pemetrexed Disodium Salt Heptahydrate] | 2.501 | 2.852 | 2.438 |  |  | 
4 | CC1=C2C[C@H]3[C@@H](CC=C4C[C@@H](O)CC[C@@]43C)[C@@H]2CC[C@]12O[C@@H]1C[C@H](C)CN[C@H]1[C@H]2C [Clyclopamine] | 9.488 | 9.093 | 9.033 |  |  | 
5 | Cc1nc(Nc2ncc(C(=O)Nc3c(C)cccc3Cl)s2)cc(N2CCN(CCO)CC2)n1 [Dasatinib] | 4.282 | 4.43 | 4.014 |  |  | 
6 | COc1nc(N)nc2c1ncn2[C@@H]1O[C@H](CO)[C@@H](O)[C@@H]1O [Nelarabine] | 8.659 | 10.08 | 11.04 |  |  | 
7 | Nc1ncn([C@@H]2O[C@H](CO)[C@@H](O)[C@H]2O)c(=O)n1 [Azactidine] | 8.861 | 6.373 | 9.05 |  |  | 
8 | CNNCc1ccc(C(=O)NC(C)C)cc1 [Procarbazine Hydrochloride] | 8.119 | 10.7 | 10.04 |  |  | 
9 | N.N.O=C([O-])C1(C(=O)[O-])CCC1.[Pt+2] [Carboplatin] | 8.83 | 8.343 | 9.302 |  |  | 
10 | NC(=O)NO [Hydroxyurea] | 9.246 | 8.455 | 8.069 |  |  | 
11 | CN(C)C/C=C/C(=O)Nc1cc2c(Nc3ccc(F)c(Cl)c3)ncnc2cc1O[C@H]1CCOC1 [Afatanib] | 2.734 | 2.139 | 2.48 |  |  | 
12 | CCCS(=O)(=O)Nc1ccc(F)c(C(=O)c2c[nH]c3ncc(-c4ccc(Cl)cc4)cc23)c1F [Vemurafenib] | 8.722 | 8.365 | 7.987 |  |  | 
13 | CC[C@]1(O)C[C@@H]2CN(CCc3c([nH]c4ccccc34)[C@@](C(=O)OC)(c3cc4c(cc3OC)N(C)[C@H]3[C@@](O)(C(=O)OC)[C@H](OC(C)=O)[C@]5(CC)C=CCN6CC[C@]43[C@@H]65)C2)C1 [Vinblastine Sulfate] | 1.393 | 1.382 | 1.54 |  |  | 
14 | CC[C@]1(O)C[C@H]2CN(CCc3c([nH]c4ccccc34)[C@@](C(=O)OC)(c3cc4c(cc3OC)N(C=O)[C@H]3[C@@](O)(C(=O)OC)[C@H](OC(C)=O)[C@]5(CC)C=CCN6CC[C@]43[C@@H]65)C2)C1 [Vincristine Sulfate] | 1.668 | 1.54 | 1.776 |  |  | 
15 | O=C(O)CCCc1ccc(N(CCCl)CCCl)cc1 [Chlorambucil] | 16.08 | 17.6 | 16.5 |  |  | 
16 | Cc1cc(Nc2ncc(Cl)c(Nc3ccccc3S(=O)(=O)C(C)C)n2)c(OC(C)C)cc1C1CCNCC1 [Ceritinib] | 1.637 | 1.421 | 1.482 |  |  | 
17 | Clc1ccc(C(c2ccccc2Cl)C(Cl)Cl)cc1 (stereo not drawn) [Mitotane] | 5.932 | 10.17 | 11.01 |  |  | 
18 | Cn1nnc2c(C(N)=O)ncn2c1=O [Temozolomide] | 9.187 | 10.06 | 9.565 |  |  | 
19 | C[C@]12CC[C@H](O)CC1=CC[C@@H]1[C@@H]2CC[C@]2(C)C(c3cccnc3)=CC[C@@H]12 [Abiraterone] | 8.378 | 9.254 | 8.785 |  |  | 
20 | CC/C(=C(\c1ccccc1)c1ccc(OCCN(C)C)cc1)c1ccccc1 [TamoxifenCitrate] | 7.863 | 7.798 | 5.949 |  |  | 
21 | O=C(c1ccc(F)c(F)c1Nc1ccc(I)cc1F)N1CC(O)([C@@H]2CCCCN2)C1 [Cobimetinib] | 7.621 | 8.041 | 4.851 |  |  | 
22 | COc1cccc2c1C(=O)c1c(O)c3c(c(O)c1C2=O)C[C@@](O)(C(=O)CO)C[C@@H]3O[C@H]1C[C@H](N)[C@@H](O)[C@H](C)O1 [Epirubicin Hydrochloride] | 0.8944 |  |  | 1.019 | 0.9399 | 
23 | CC[C@H](Nc1ncnc2[nH]cnc12)c1nc2cccc(F)c2c(=O)n1-c1ccccc1 [Idelalisib] | 7.566 | 7.03 | 7.039 |  |  | 

Row | Molecule | MCF7 WT Parental pool (AUC) (MCF7 WT Parental pool; [1]) | TP53 KO 5.6 pool (AUC) (MCF7 TP53 KO 5.6 pool; [1]) | TP53 KO 3.4 pool (AUC) (MCF7 TP53 KO 3.4 pool; [1]) | TP53 KO 5.6 pool (AUC) (MCF7 TP53 KO 5.6 pool) | TP53 KO 3.4 pool (AUC) (MCF7 TP53 KO 3.4 pool) | MCF7 WT Parental pool (AUC) (MCF7 WT Parental pool)
24 | CC1=C(/C=C/C(C)=C/C=C/C(C)=C/C(=O)O)C(C)(C)CCC1 [Tretinoin] | 7.394 | 7.997 | 7.809 |  |  | 
25 | COc1cccc2c1C(=O)c1c(O)c3c(c(O)c1C2=O)C[C@@](O)(C(=O)CO)C[C@@H]3O[C@H]1C[C@H](N)[C@H](O)[C@H](C)O1 [Doxorubicin Hydrochloride] | 0.9435 |  |  | 1.009 | 0.9013 | 
26 | C[C@]12CC[C@@H]3c4ccc(OC(=O)N(CCCl)CCCl)cc4CC[C@H]3[C@@H]1CC[C@@H]2OP(=O)(O)O [Estramustine Phosphate Sodium] | 9.864 | 9.348 | 9.491 |  |  | 
27 | Nc1ccn([C@@H]2O[C@H](CO)[C@@H](O)C2(F)F)c(=O)n1 [Gemcitabine Hydrochloride] | 2.888 | 1.827 | 1.464 |  |  | 
28 | Cc1[nH]c2ccccc2c1CCNCc1ccc(/C=C/C(=O)NO)cc1 [Panobinostat] | 0.6418 | 0.5971 | 0.5862 |  |  | 
29 | CO[C@@]12[C@H](COC(N)=O)C3=C(C(=O)C(C)=C(N)C3=O)N1C[C@@H]1N[C@@H]12 [Mitomycin] | 1.122 | 0.912 | 1.003 |  |  | 
30 | CCN(CC)CCNC(=O)c1c(C)[nH]c(/C=C2\C(=O)Nc3ccc(F)cc32)c1C [Sunitinib] | 3.556 | 3.758 | 3.076 |  |  | 
31 | Cc1ccc(C(=O)Nc2ccc(CN3CCN(C)CC3)c(C(F)(F)F)c2)cc1C#Cc1cnc2cccnn12 [Ponatinib] |  |  |  | 3.632 | 2.944 | 3.312
32 | O=NN(CCCl)C(=O)NC1CCCCC1 [Lomustine] | 9.62 | 9.491 | 9.629 |  |  | 
33 | CS(=O)(=O)OCCCCOS(C)(=O)=O [Busulfan] | 9.118 | 8.834 | 9.336 |  |  | 
34 | CN(N=O)C(=O)N[C@@H](C=O)[C@@H](O)[C@H](O)[C@H](O)CO [Streptozocin] | 9.145 | 9.912 | 10.58 |  |  | 
35 | S=c1nc[nH]c2nc[nH]c12 [Mercaptopurine] | 6.103 | 5.636 | 5.941 |  |  | 
36 | CC(=O)O[C@]1(C(C)=O)CC[C@H]2[C@@H]3C=C(C)C4=CC(=O)CC[C@]4(C)[C@H]3CC[C@@]21C [Megestrol Acetate] | 9.824 | 9.555 | 9.221 |  |  | 
37 | CCCCC(=O)OCC(=O)[C@]1(O)Cc2c(O)c3c(c(O)c2[C@@H](O[C@H]2C[C@H](NC(=O)C(F)(F)F)[C@H](O)[C@H](C)O2)C1)C(=O)c1c(OC)cccc1C3=O [Valrubicin] | 1.194 | 1.05 | 1.25 |  |  | 
38 | CC(=O)O[C@H]1C(=O)[C@@]2(C)[C@H]([C@H](OC(=O)c3ccccc3)[C@]3(O)C[C@H](OC(=O)[C@H](O)[C@@H](NC(=O)c4ccccc4)c4ccccc4)C(C)=C1C3(C)C)[C@]1(OC(C)=O)CO[C@@H]1C[C@@H]2O [Paclitaxel] | 1.453 | 1.432 | 1.453 |  |  | 
39 | N[C@@H](Cc1ccc(N(CCCl)CCCl)cc1)C(=O)O [Melphalan Hydrochloride] | 5.766 | 5.95 | 6.158 |  |  | 
40 | C#CCC(Cc1cnc2nc(N)nc(N)c2n1)c1ccc(C(=O)N[C@@H](CCC(=O)O)C(=O)O)cc1 (stereo partly drawn) [Pralatrexate] | 2.822 | 2.86 | 2.774 |  |  | 
41 | C/C(=C\c1csc(C)n1)[C@@H]1C[C@@H]2O[C@]2(C)CCC[C@H](C)[C@H](O)[C@@H](C)C(=O)C(C)(C)[C@@H](O)CC(=O)N1 [Ixabepilone] | 1.397 | 1.473 | 1.543 |  |  | 
42 | N.N.[Cl][Pt][Cl] [Cisplatin] | 7.335 | 7.44 | 6.27 |  |  | 
43 | Arsenic Trioxide | 5.018 | 5.373 | 5.242 |  |  | 
44 | CC(C)C[C@H](NC(=O)[C@H](Cc1ccccc1)NC(=O)c1cnccn1)B(O)O [Bortezomib] | 0.6974 | 0.7486 | 0.673 |  |  | 
45 | Bleomycin Sulfate | 3.922 | 3.421 | 4.694 |  |  | 
